The target of assay [1] is T1, cardiac Na+ channel, hNav1.5 (Homo sapiens, UniProt Q14524).
T1 construct: expressed in transfected cells; host or cells: Chinese hamster ovary K1 (CHO) cells
In words: hNav1.5 IonWorks electrophysiology in CHO cells. The assay is classed as cell-based. To be noted: IonWorks Quattro, 3 Hz, room temperature. Here is the method: The hNav1.5-expressing Chinese hamster ovary K1 (CHO) cells used has been described previously (Persson, F. et al, (2005), Journal of Cardiovascular Electrophysiology, 16, 329-341). These cells were grown to semi-confluence at 37° C. in a humidified environment (5% CO2) in F-12 Ham medium containing Glutamax™, 10% foetal calf serum and 1 mg/ml G418 (all Invitrogen). Prior to use, the monolayer was washed using a pre-warmed (37° C.) 3 ml aliquot of Versene 1:5000 (Invitrogen). After aspiration of this solution the flask was incubated at 37° C. with a further 3 ml of Versene 1:5000 for a period of 6 min. […] A 0.5 ml aliquot of cell suspension was removed and the number of viable cells (based on trypan blue exclusion) was determined in an automated cell counter (Cedex; Innovatis) so that the cell re-suspension volume could be adjusted with PBS to give the desired final cell concentration. […]
Pre- and post-scan hNav1.5 current amplitude was measured from the leak-subtracted traces by the IonWorks™ software by taking the average current during the end of the depolarising pulse to 0 mV (baseline current) and subtracting this from the peak inward current. […]
(In general: The patch-clamp technique gives a direct electrical read-out from membranes.)

Assay [2] has as its target DYRK1a (Dual Specificity Tyrosine Phosphorylated and Regulated Kinase 1a) (Homo sapiens, UniProt Q13627). In words: Inhibitory activity against DYRK1a. The format is biochemical.

The values that follow come from patent US8198285B2, “Pyrazine derivatives” (Astrazeneca AB, priority 2010, dated 2012).

Structures are written as SMILES. Where a name gives a salt, the structure may show the parent alone.

T1 sequence (Q14524 whole entry): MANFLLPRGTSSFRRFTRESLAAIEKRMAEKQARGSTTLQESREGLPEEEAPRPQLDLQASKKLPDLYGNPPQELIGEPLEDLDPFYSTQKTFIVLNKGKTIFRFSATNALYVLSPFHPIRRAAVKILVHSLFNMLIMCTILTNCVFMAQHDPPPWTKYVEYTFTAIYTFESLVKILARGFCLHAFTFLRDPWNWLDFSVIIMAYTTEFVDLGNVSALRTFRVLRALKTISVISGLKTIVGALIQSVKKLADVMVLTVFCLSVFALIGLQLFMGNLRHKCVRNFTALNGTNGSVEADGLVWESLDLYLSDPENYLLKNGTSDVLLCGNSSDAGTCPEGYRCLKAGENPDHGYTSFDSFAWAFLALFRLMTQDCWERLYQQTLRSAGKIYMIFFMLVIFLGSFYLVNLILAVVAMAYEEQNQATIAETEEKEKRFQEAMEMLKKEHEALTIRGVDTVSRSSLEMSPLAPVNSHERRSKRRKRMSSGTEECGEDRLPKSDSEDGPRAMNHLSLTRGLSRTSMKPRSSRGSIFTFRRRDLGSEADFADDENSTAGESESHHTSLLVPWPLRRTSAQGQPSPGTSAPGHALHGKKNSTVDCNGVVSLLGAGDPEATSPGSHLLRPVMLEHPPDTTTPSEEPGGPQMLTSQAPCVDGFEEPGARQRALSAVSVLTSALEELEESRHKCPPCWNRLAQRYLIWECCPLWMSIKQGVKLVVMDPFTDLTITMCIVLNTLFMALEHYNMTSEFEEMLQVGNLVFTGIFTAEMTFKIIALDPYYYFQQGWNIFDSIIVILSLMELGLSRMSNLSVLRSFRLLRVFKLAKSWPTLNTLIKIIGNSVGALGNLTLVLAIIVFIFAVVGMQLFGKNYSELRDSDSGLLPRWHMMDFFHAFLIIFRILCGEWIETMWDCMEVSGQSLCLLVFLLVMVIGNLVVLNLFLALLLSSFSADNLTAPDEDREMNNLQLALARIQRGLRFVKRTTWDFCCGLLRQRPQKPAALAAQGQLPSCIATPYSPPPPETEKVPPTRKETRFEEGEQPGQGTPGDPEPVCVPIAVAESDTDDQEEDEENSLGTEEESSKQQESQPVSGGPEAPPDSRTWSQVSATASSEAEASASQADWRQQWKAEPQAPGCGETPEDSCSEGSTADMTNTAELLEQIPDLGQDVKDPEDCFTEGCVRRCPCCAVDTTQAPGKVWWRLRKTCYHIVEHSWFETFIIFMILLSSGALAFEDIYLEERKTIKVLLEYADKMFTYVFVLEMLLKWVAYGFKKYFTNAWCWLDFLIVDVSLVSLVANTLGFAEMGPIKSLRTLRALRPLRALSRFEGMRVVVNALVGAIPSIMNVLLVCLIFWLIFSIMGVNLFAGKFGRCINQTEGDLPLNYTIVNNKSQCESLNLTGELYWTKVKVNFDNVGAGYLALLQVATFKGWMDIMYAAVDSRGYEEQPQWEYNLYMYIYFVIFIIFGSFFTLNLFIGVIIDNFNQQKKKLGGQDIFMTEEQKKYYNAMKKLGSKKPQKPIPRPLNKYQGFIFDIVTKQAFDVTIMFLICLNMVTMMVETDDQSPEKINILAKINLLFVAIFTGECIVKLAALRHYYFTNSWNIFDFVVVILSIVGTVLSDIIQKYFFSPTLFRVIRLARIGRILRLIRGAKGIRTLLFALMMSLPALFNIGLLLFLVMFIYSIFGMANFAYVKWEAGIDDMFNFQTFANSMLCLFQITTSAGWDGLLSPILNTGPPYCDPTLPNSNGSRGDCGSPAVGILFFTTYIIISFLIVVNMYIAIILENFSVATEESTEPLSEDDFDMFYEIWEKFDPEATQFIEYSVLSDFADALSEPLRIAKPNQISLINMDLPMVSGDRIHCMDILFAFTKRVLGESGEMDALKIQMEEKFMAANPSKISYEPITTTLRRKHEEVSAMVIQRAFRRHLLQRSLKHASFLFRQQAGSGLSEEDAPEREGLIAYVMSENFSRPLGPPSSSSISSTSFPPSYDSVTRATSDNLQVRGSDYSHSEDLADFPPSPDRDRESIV

As usually defined, the IC50 is the concentration needed to halve the response being measured. A higher IC50 goes with weaker potency in that assay. For the compound `COCCCNCCCc1ccc(-c2cnc(N)c(C(=O)Nc3cccnc3)n2)cc1` [Example 1, 3-Amino-6-(4-{3-[(3-methoxypropyl)amino]propyl}phenyl)-N-pyridin-3-ylpyrazine-2-carboxamide tri-hydrochloride], the IC50 in assay [1] came to 21.2 µM. Also, the “Inhibitory activity against DYRK1a” value in assay [2] is recorded as “inhibitory activity”.
